In the supplement of paper PMC4932681:

How the values were obtained:
T-47D Tam2 = test: drug sensitivity score (DSS) (DSS (dimensionless)); higher = more sensitive; extreme values may be limits of the assay; details: 4-OH-tamoxifen in medium 1 µM; 72 h
Procedure: (§1)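 FIMM FO2B library drugs were tested at 5 concentrations (10,000-fold range) for 72 h, with CellTiter-Glo viability normalised to DMSO and benzethonium chloride controls. The Drug Sensitivity Score (DSS) is computed from the fitted logistic dose-response curve (area-based; 0 = inactive). Resistant lines and the 'in 1µM tamoxifen' arms were tested in 1 µM 4-OH-tamoxifen.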

ZR-75-1 Tam2 [1] = test: as above; details: 4-OH-tamoxifen in medium 1 µM; 72 h
Procedure: as §1

ZR-75-1 Tam1 [2] = test: as above; details: 4-OH-tamoxifen in medium 1 µM; 72 h
Procedure: as §1

BT-474 Tam2 [3] = test: as above; details: 4-OH-tamoxifen in medium 1 µM; 72 h
Procedure: as §1

MCF-7 Tam1 [4] = test: as above; details: 4-OH-tamoxifen in medium 1 µM; 72 h
Procedure: as §1

T-47D Tam1 [5] = test: as above; details: 4-OH-tamoxifen in medium 1 µM; 72 h
Procedure: as §1

BT-474 Tam1 [6] = test: as above; details: 4-OH-tamoxifen in medium 1 µM; 72 h
Procedure: as §1

ZR-75-1 [7] = test: as above; details: 72 h
Procedure: as §1

MCF-7 [8] = test: as above; details: 72 h
Procedure: as §1

BT-474 [9] = test: as above; details: 72 h
Procedure: as §1

T-47D [10] = test: as above; details: 72 h
Procedure: as §1

BT-474 Tam2 [11] = test: relative IC50 (midpoint of fitted logistic curve, plateau may be below 50% inhibition; CellTiter-Glo viability); higher = less potent; details: 4-OH-tamoxifen in medium 1 µM; 72 h
Procedure: (§2)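 FIMM FO2B library drugs were plated at 5 concentrations spanning a 10,000-fold range in 384-well plates. Cells were incubated for 72 h at 37 °C and viability was read by CellTiter-Glo, normalised to DMSO (0% inhibition) and 100 µM benzethonium chloride (100% inhibition). IC50 values come from logistic dose-response fits (Breeze pipeline). Tamoxifen-resistant lines and the 'in 1µM tamoxifen' parental arms were tested in medium with 1 µM 4-OH-tamoxifen.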

MCF-7 Tam1 [12] = test: as above; details: 4-OH-tamoxifen in medium 1 µM; 72 h
Procedure: as §2

T-47D Tam1 [13] = test: as above; details: 4-OH-tamoxifen in medium 1 µM; 72 h
Procedure: as §2

BT-474 Tam1 [14] = test: as above; details: 4-OH-tamoxifen in medium 1 µM; 72 h
Procedure: as §2

MCF-7 [15] = test: as above; details: 72 h
Procedure: as §2

BT-474 [16] = test: as above; details: 72 h
Procedure: as §2

T-47D [17] = test: as above; details: 72 h
Procedure: as §2

ZR-75-1 Tam1 [18] = test: as above; details: 4-OH-tamoxifen in medium 1 µM; 72 h
Procedure: as §2

ZR-75-1 [19] = test: as above; details: 72 h
Procedure: as §2

ZR-75-1 Tam2 [20] = test: as above; details: 4-OH-tamoxifen in medium 1 µM; 72 h
Procedure: as §2

Row | relative IC50 (BT-474 Tam2 [11]) [µM] | relative IC50 (MCF-7 Tam1 [12]) [µM] | relative IC50 (T-47D Tam1 [13]) [µM] | relative IC50 (BT-474 Tam1 [14]) [µM] | relative IC50 (MCF-7 [15]; 4-OH-tamoxifen in medium 0 µM) [µM] | relative IC50 (BT-474 [16]; 4-OH-tamoxifen in medium 0 µM) [µM] | relative IC50 (BT-474 [16]; 4-OH-tamoxifen in medium 1 µM) [µM] | relative IC50 (T-47D [17]; 4-OH-tamoxifen in medium 1 µM) [µM] | relative IC50 (T-47D [17]; 4-OH-tamoxifen in medium 0 µM) [µM] | SMILES | drug sensitivity score (T-47D Tam2) | drug sensitivity score (ZR-75-1 Tam2 [1]) | drug sensitivity score (ZR-75-1 Tam1 [2]) | drug sensitivity score (BT-474 Tam2 [3]) | drug sensitivity score (MCF-7 Tam1 [4]) | drug sensitivity score (T-47D Tam1 [5]) | drug sensitivity score (BT-474 Tam1 [6]) | drug sensitivity score (ZR-75-1 [7]; 4-OH-tamoxifen in medium 0 µM) | drug sensitivity score (ZR-75-1 [7]; 4-OH-tamoxifen in medium 1 µM) | drug sensitivity score (MCF-7 [8]; 4-OH-tamoxifen in medium 0 µM) | drug sensitivity score (MCF-7 [8]; 4-OH-tamoxifen in medium 1 µM) | drug sensitivity score (BT-474 [9]; 4-OH-tamoxifen in medium 0 µM) | drug sensitivity score (BT-474 [9]; 4-OH-tamoxifen in medium 1 µM) | drug sensitivity score (T-47D [10]; 4-OH-tamoxifen in medium 0 µM) | drug sensitivity score (T-47D [10]; 4-OH-tamoxifen in medium 1 µM) | relative IC50 (MCF-7 [15]; 4-OH-tamoxifen in medium 1 µM) [µM] | relative IC50 (ZR-75-1 Tam1 [18]) [µM] | relative IC50 (ZR-75-1 [19]; 4-OH-tamoxifen in medium 0 µM) [µM] | relative IC50 (ZR-75-1 Tam2 [20]) [µM] | relative IC50 (ZR-75-1 [19]; 4-OH-tamoxifen in medium 1 µM) [µM]
1 | > 10 | > 10 | > 10 |  | > 10 | > 10 | > 10 | > 10 |  | Cc1ccc(Nc2nccc(N(C)c3ccc4c(C)n(C)nc4c3)n2)cc1S(N)(=O)=O [Pazopanib] | 0.821 | 0.0921 | 0 | 0 | 0 | 0 | 0.0636 | 0 | 0 | 0 | 0.177 | 0 | 0 | 0.231 | 0 |  | > 10 | > 10 |  | 
2 | > 1 | > 1 |  | > 1 | > 1 | > 1 | > 1 | > 1 |  | CC(C)(C)c1cc(NC(=O)Nc2ccc(-c3cn4c(n3)sc3cc(OCCN5CCOCC5)ccc34)cc2)no1 [Quizartinib (AC220)] | 0.279 | 0 | 0 | 0 | 0 | 0 | 0 | 0 | 0 | 0 | 0 | 0 | 0 | 0 | 0 | > 1 | > 1 | > 1 | > 1 | > 1
3 |  | 0.389 | 0.335 | 0.571 | 1.41 | > 10 | 0.7 |  |  | COc1cc(F)c(F)c(Nc2ccc(I)cc2F)c1NS(=O)(=O)C1(C[C@H](O)CO)CC1 [Refametinib (RDEA119)] | 1.2 | 0 | 0 | 0.629 | 3.77 | 4.09 | 3.68 | 0.912 | 0 | 3.75 | 3.88 | 0 | 6.44 | 1.6 | 0.324 | 1.08 |  |  |  | > 10

The next lines start with the compound.

Row | SMILES | relative IC50 (BT-474 Tam2 [11]) [µM] | relative IC50 (MCF-7 Tam1 [12]) [µM] | relative IC50 (T-47D Tam1 [13]) [µM] | relative IC50 (BT-474 Tam1 [14]) [µM] | relative IC50 (MCF-7 [15]; 4-OH-tamoxifen in medium 0 µM) [µM] | relative IC50 (BT-474 [16]; 4-OH-tamoxifen in medium 0 µM) [µM] | relative IC50 (BT-474 [16]; 4-OH-tamoxifen in medium 1 µM) [µM] | relative IC50 (T-47D [17]; 4-OH-tamoxifen in medium 1 µM) [µM] | relative IC50 (T-47D [17]; 4-OH-tamoxifen in medium 0 µM) [µM] | drug sensitivity score (T-47D Tam2) | drug sensitivity score (ZR-75-1 Tam2 [1]) | drug sensitivity score (ZR-75-1 Tam1 [2]) | drug sensitivity score (BT-474 Tam2 [3]) | drug sensitivity score (MCF-7 Tam1 [4]) | drug sensitivity score (T-47D Tam1 [5]) | drug sensitivity score (BT-474 Tam1 [6]) | drug sensitivity score (ZR-75-1 [7]; 4-OH-tamoxifen in medium 0 µM) | drug sensitivity score (ZR-75-1 [7]; 4-OH-tamoxifen in medium 1 µM) | drug sensitivity score (MCF-7 [8]; 4-OH-tamoxifen in medium 0 µM) | drug sensitivity score (MCF-7 [8]; 4-OH-tamoxifen in medium 1 µM) | drug sensitivity score (BT-474 [9]; 4-OH-tamoxifen in medium 0 µM) | drug sensitivity score (BT-474 [9]; 4-OH-tamoxifen in medium 1 µM) | drug sensitivity score (T-47D [10]; 4-OH-tamoxifen in medium 0 µM) | drug sensitivity score (T-47D [10]; 4-OH-tamoxifen in medium 1 µM) | relative IC50 (MCF-7 [15]; 4-OH-tamoxifen in medium 1 µM) [µM] | relative IC50 (ZR-75-1 Tam1 [18]) [µM] | relative IC50 (ZR-75-1 [19]; 4-OH-tamoxifen in medium 0 µM) [µM] | relative IC50 (ZR-75-1 Tam2 [20]) [µM] | relative IC50 (ZR-75-1 [19]; 4-OH-tamoxifen in medium 1 µM) [µM]
4 | O=C1c2c(O)ccc(O)c2C(=O)c2c(NCCNCCO)ccc(NCCNCCO)c21 [Mitoxantrone] | > 1 | > 1 | 0.0368 | > 1 | > 1 | > 1 | > 1 | > 1 |  | 1.21 | 4.66 | 1.67 | 0 | 0 | 7.08 | 0 | 3.03 | 2.35 | 0 | 0 | 0 | 0 | 2.79 | 0 | > 1 |  |  |  | 
5 | N[C@@H](CSC(c1ccccc1)(c1ccccc1)c1ccccc1)C(=O)O [S-trityl-L-cysteine] | > 40 | > 40 | > 40 |  | > 40 | 40 |  | > 40 |  | 0.0046 | 0.627 | 0 | 0 | 0 | 0 | 1.68 | 1.65 | 0 | 0 | 1.69 | 0 | 1.41 | 0.0068 | 0 |  | > 40 |  |  | > 40
6 | CC1=C(/C=C/C(C)=C/C=C/C(C)=C/C(=O)O)C(C)(C)CCC1 [Tretinoin] | > 10 | > 10 |  | > 10 | > 10 | > 10 | > 10 | > 10 | > 10 | 0.122 | 0 | 0 | 0 | 0 | 0.561 | 0 | 0 | 0 | 0 | 0.52 | 0 | 0 | 0 | 0 |  | > 10 | > 10 | > 10 | > 10
7 | C1CN1c1nc(N2CC2)nc(N2CC2)n1 [Triethylenemelamine] | > 10 | > 10 |  | > 10 | > 10 | > 10 | > 10 | > 10 | > 10 | 0.12 | 0 | 0 | 0 | 0 | 0.0501 | 0 | 0 | 0 | 0 | 0 | 0 | 0 | 0 | 0 | > 10 | > 10 | > 10 | > 10 | > 10
8 | CN1CCc2c(c3ccccc3n2Cc2ccc(C(=O)NO)cc2)C1 [Tubastatin A] |  | > 10 | > 10 | 3.12 |  | > 10 |  | > 10 | > 10 | 0 | 0.301 | 0.0626 | 0.145 | 0 | 0 | 1.77 | 0.27 | 0.715 | 0 | 0.884 | 0 | 0.725 | 0 | 0 |  |  |  |  | 
